Assay results: publication PMC9658586, “1,4-Naphthoquinone Motif in the Synthesis of New Thiopyrano[2,3-d]thiazoles as Potential Biologically Active Compounds” (Molecules, 2022)

Tests used:
M14/ADR-RES/ Melanoma = test: NCI single-dose screen, M14/ADR-RES; type: cell-based, human; conditions: 10 μM, 48 h
Protocol: (§1) Selection for screening based on new derivatives’ ability to add diversity to the NCI small molecules collection and anticancer assays were performed according to the NCI guidelines and protocols previously described. The compounds were added at the mentioned concentration, and the cell cultures were incubated for 48 h.
(§2) Anticancer in vitro assay was performed on the human tumor cell lines panel derived from nine neoplastic diseases by the protocol of the Drug Evaluation Branch, National Cancer Institute, Bethesda, MD, USA [44, 45, 46]. Tested compounds were added to the culture at a single concentration (10^−5 M), and the cultures were incubated for 48 h. […] GP% was spectrophotometrically evaluated vs. controls not treated with test agents.

SK-MEL-5/Melanoma = test: NCI single-dose screen, SK-MEL-5; type: cell-based, human; conditions: 10 μM, 48 h
Protocol: as §1, §2

SK-MEL-2/Melanoma = test: NCI single-dose screen, SK-MEL-2; type: cell-based, human; conditions: 10 μM, 48 h
Protocol: (§3) Considering the results of previous studies of fused thiazolidinones and their analogs, a series of thiopyrano[2,3-d]thiazoles with naphthoquinone fragments in the structure were studied for their anticancer activity. Thus, synthesized thiopyranothiazole derivatives 3.5 and 3.6 were selected by the National Cancer Institute (NCI), U.S., for their anticancer activity at 10 μM concentration toward a panel of sixty cancer cell lines representing nine different types (leukemia, melanoma, lung, colon, CNS, ovarian, renal, prostate, and breast cancers) (Figures S13–S14). Selection for screening based on new derivatives’ ability to add diversity to the NCI small molecules collection and anticancer assays were performed according to the NCI guidelines and protocols previously described. The compounds were added at the mentioned concentration, and the cell cultures were incubated for 48 h. The results for each compound were reported as the growth percent (GP%) of treated cells compared with untreated control cells.
as §2, with “46].” for “46]. Tested compounds were added to the culture at a single concentration (10^−5 M), and the cultures were incubated for 48 h.”

LOX IMVI/Melanoma = test: NCI single-dose screen, LOX IMVI; type: cell-based, human; conditions: 10 μM, 48 h
Protocol: as §3
as §2, with “46].” for “46]. Tested compounds were added to the culture at a single concentration (10^−5 M), and the cultures were incubated for 48 h.”

salmon sperm DNA = test: Spectroscopic DNA interaction assay (KMnO4 oxidation); type: binding; conditions: DNA + compound + KMnO4, time- and concentration-dependent, up to 3 h; binder if >0.05 or <−0.05
Excerpt: The method investigates conformational changes in the DNA; for example, when DNA is exposed to an intercalating, alkylation, or other classes of DNA-binding agents. It is based on the oxidative reaction of potassium permanganate with pyrimidine bases. Compounds that interact with DNA distort its duplex structure, thus exposing pyrimidine bases for oxidation by KMnO4, which generates products that can be detected by spectrophotometry. Different classes of DNA-binding compounds can be studied in such a way. […] Net A405 ranged from 0.00 to 0.50 in the presence of the compound, and Net A405 ranged from 0.02 to 0.045 in the control case (Figure 9).
A spectroscopic DNA interaction study was performed as previously described. salmon sperm DNA (Sigma-Aldrich, USA) was diluted in Milli-Q water at 4 °C for 24 h at 1.65 mg/mL. Tested compounds were dissolved in acetone. After 1 h of incubation of DNA and compound, KMnO4 was added to a final concentration of 0.3 mM and the absorbance at 405 nm was measured (Absorbance Reader BioTek ELx800) (BioTek Instruments, Inc., Winooski, VT, USA) in different periods up to 3 h. Appropriate controls of DNA alone and compound alone were included, and these Abs values were subtracted from the test sample to provide the net change in absorbance (NetAbs). […]

UO-31/Renal Cancer = test: NCI single-dose screen, UO-31; type: cell-based, human; conditions: 10 μM, 48 h
Protocol: as §3
as §2, with “46].” for “46]. Tested compounds were added to the culture at a single concentration (10^−5 M), and the cultures were incubated for 48 h.”

MALME-3M/Melanoma = test: NCI single-dose screen, MALME-3M; type: cell-based, human; conditions: 10 μM, 48 h
Protocol: as §3
as §2, with “46].” for “46]. Tested compounds were added to the culture at a single concentration (10^−5 M), and the cultures were incubated for 48 h.”

| SMILES | Most Sensitive Cell Line Growth, % (M14/ADR-RES/ Melanoma) (M14/ADR-RES/ Melanoma) [%] | Most Sensitive Cell Line Growth, % (SK-MEL-5/Melanoma) (SK-MEL-5/Melanoma) [%] | Most Sensitive Cell Line Growth, % (SK-MEL-2/Melanoma) (SK-MEL-2/Melanoma) [%] | Most Sensitive Cell Line Growth, % (LOX IMVI/Melanoma) (LOX IMVI/Melanoma) [%] | Net A405 (net change in absorbance) (salmon sperm DNA) | Most Sensitive Cell Line Growth, % (UO-31/Renal Cancer) (UO-31/Renal Cancer) [%] | Most Sensitive Cell Line Growth, % (MALME-3M/Melanoma) (MALME-3M/Melanoma) [%] |
| --- | --- | --- | --- | --- | --- | --- | --- |
| COc1cccc2c1C(=O)c1c(O)c3c(c(O)c1C2=O)C[C@@](O)(C(=O)CO)C[C@@H]3O[C@H]1C[C@H](N)[C@H](O)[C@H](C)O1 [Doxorubicin, doxorubicin, reference compound] | −71.60 | −86.40 | −82.60 | – | – | – | – |
| O=C1C2=C(C(=O)c3ccccc31)C(CCc1ccccc1)c1sc(=O)[nH]c1S2 (stereo not shown) [Compound 3.6, 11-Phenethyl-3,11-dihydro-2H-benzo[6,7]thiochromeno[2,3-d]thiazole-2,5,10-trione] | – | – | – | 57.17 | 0.00 to 0.50 | 51.76 | 45.25 |
